# Reference: patent US20250136934A1, “PRODUCTION OF INDUCED MIDBRAIN DOPAMINERGIC PROGENITOR CELLS FROM PLURIPOTENT STEM CELLS” (NUWACELL BIOTECHNOLOGIES CO., LTD., priority 2023, published 2025)
# Tests used:
# [1] = test system: imDAP cells; assay: Specification of imDAP cells under BMP and TGF-β signaling inhibition (FACS FOXA2+/OTX2+, NKX2.1 qRT-PCR, LMX1A immunostaining); type: cell-based, human; details: for specification of imDAP cells (FIGS. 13A-13D taken together): LDN193189 at 0.2 μM Day 0 to Day 6 and SB431542 at 50 μM Day 0 to Day 4 or Day 0 to Day 6; for specification of imDAP cells (FIGS. 12A-12C taken together): LDN193189 at 0.5 μM and SB431542 at 20 μM, among all combinations of concentrations tested; for specification of imDAP cells (FIGS. 11A-11C taken together): LDN193189 from D0 to D6 and SB431542 from D0 to D4, among all time windows tested
# [2] = test system: FOXA2+ imDAP cells; assay: FACS analysis of FOXA2 expression of imDAP cells derived from hiPSCs; type: cell-based, human
# Description: • 1. Individualize and collect cells by either Accutase or TrypLE treatment. • 2. Wash cells with 1 ml PBS and pellet cells at 250×g for […]. • 3. Remove supernatant, add ˜200 μl of 4% PFA, mix and fix for 10 min at RT. • 4. Pellet cells at 350×g for 5 min. • 5. Wash cells by 1 ml of FACS buffer and pellet cells at 350×g for 5 min. • 6. Remove supernatant, add 200 μl/tube of FACS buffer/0.1% Triton X, mix for 10 min at RT. • 7. Wash cells by 1 ml of FACS buffer and pellet cells at 350×g for 5 min. • 8. Remove supernatant, add 200 μl/tube of primary antibody diluted in FACS buffer, mix gently, and incubate for 30 min at RT. • 9. Wash cells by 1 ml of FACS buffer and pellet cells at 350×g for 5 min. • 10. Remove supernatant, and add 200 μl of secondary antibody diluted in FACS buffer, mix gently, and incubate for 30 min at RT. • 11. Wash cells by 1 ml of FACS buffer and pellet cells at 300×g for 5 min. • 12. Remove supernatant, add 200 μl of FACS buffer, and run samples on the flow cytometer.
# On Day-1, EB formation (Stage 1) was carried out by dissociating hiPSCs (Nuwacell) to form a single-cell suspension and resuspending it in Epic medium (Nuwacell, #RP01001) containing 10 μM Blebbistatin (MCE, #HY-13441) in T25 flasks on a belly dancer and culturing the cells overnight. On Day 0, ventral midbrain floor plate differentiation (Stage 2) was initiated by changing the medium to a Stage 2-1 differentiation medium containing DMEM: F12/B27 (plus Vitamin A) (98:2, v/v) as basal medium and supplemented with 0.2 μM LDN193189, 10 μM SB431542, 1 μg/mL SHH C24II and 1.25 μM CHIR99021 and culturing the cells for 3 Days. From Day 3, the basal medium was changed to DMEM: F12/B27 (minus Vitamin A) (98:2, v/v), and CHIR concentration was boosted to 7.5 μM until Day 10 (Stage 2-2). SB431542 was withdrawn on Day 4, and SHH C24II was withdrawn on Day 8. From Day 10 (Stage 2-3), the medium was changed to a differentiation medium containing DMEM: F12/B27 (minus Vitamin A) (98:2, v/v) as basal medium and supplemented with 0.2 μM LDN193189 and 3 μM CHIR99021. During the cell culture, each of the differentiation media was replaced every day. On Day 16 (at the end of S2-3), EBs were dissociated for single cells and collected for analysis. The cells of each group were stained with FOXA2-PE antibody (BD, #561689), the percentage of FOXA2+ imDAP cells were analyzed by flow cytometry (FIG. 5). The above experiment was repeated for three times and the derived imDAP cells were named as Lot1, Lot2 and Lot3, respectively.
# On Day-1, EB formation (Stage 1) was carried out by dissociating hiPSCs (Nuwacell) to form a single-cell suspension and resuspending it in Epic medium (Nuwacell, #RP01001) containing 10 μM Blebbistatin (MCE, #HY-13441) in T25 flasks on a belly dancer and culturing the cells overnight. On Day 0, ventral midbrain floor plate differentiation (Stage 2) was initiated by changing the medium to a Stage 2-1 differentiation medium containing DMEM: F12/B27 (plus Vitamin A) (98:2, v/v) as basal medium and supplemented with 0.2 μM LDN193189, 20 μM SB431542, 1.2 μM CHIR99021, and 1 μg/mL SHH C24II or the combination of SHH agonists including 500 ng/mL SHH C24II, 2 μM Purmorphamine and 10 nM SAG and culturing the cells for 3 days. From Day 3, the basal medium was changed to DMEM: F12/B27 (minus Vitamin A) (98:2, v/v). Cells were exposed to Boost-CHIR concentration of 7.5 μM starting from Day 4 to Day 6 (Stage 2-2), followed by a low CHIR concentration of 1.2 μM (Stage 2-3) until Day 10. […]
Molecule,specification of imDAP cells (FIGS. 13A-13D taken together) [1],specification of imDAP cells (FIGS. 12A-12C taken together) [1],specification of imDAP cells (FIGS. 11A-11C taken together) [1],"percentage of cells positive for FOXA2 ([2]; 4-step protocol, SHH agonist in medium Day 0 to Day 10, analysis Day 16) [%]",percentage of FOXA2+ cells ([2]; without Vitamin A throughout differentiation versus Vitamin A only D0-3 or D0-2)
c1ccc2c(-c3cnn4cc(-c5ccc(N6CCNCC6)cc5)cnc34)ccnc2c1 [LDN193189],best results,best results,best results,,
NC(=O)c1ccc(-c2nc(-c3ccc4c(c3)OCO4)c(-c3ccccn3)[nH]2)cc1 [SB431542],best results,best results,best results,,
"SHH C24II: sonic hedgehog agonist polypeptide, SEQ ID NO: 2",,,,85.71,
Vitamin A,,,,,higher percentage
